Measurements from patent publication US20040197932A1, “Bio-vehicle, biosensor and biotransducer system” (priority 2003, published 2004).

Test system: major urinary protein (MUP)
Assay: QCM ligand-binding test: shift of resonant frequency on binding of evaporated ligand to immobilized MUP
Design: species or system mouse
Conditions: MUP immobilized on 10 MHz AT-cut QCM chip; odorant sample evaporated at 50° C. and pumped into detection chamber
Procedure: The preferred electronic nose technology of the present invention is piezoelectric-based. Measurements are performed by detecting the binding of analytes (ligands) onto the sensing elements immobilized on piezoelectric materials, e.g., quartz crystal. The adsorption of ligand induces a shift in the oscillation frequency proportional to the mass of the encountered ligand. The operating performance of the present invention is described as bellow:
Gold electrodes of quartz crystal microbalance (QCM) surface are cleaned by immersing in 1.2 N NaOH and then in 1.2 N HCl. After rinsing and drying, the QCM electrodes are soaked in 1 mM 2-aminoethanethiol/DMSO solution for 12 hours and washed by double distilled water for 10 min. Then the QCM electrodes are dried in oven and dripped with 4 μl of 2.5% glutaldehyde for 1 hour. Two μl of 1% polyethylenimine/methanol (PEI/MeOH) solution are added onto activated surface of QCM in a closed chamber at room temperature for 12 hours. Finally, the QCM chips are washed two times and dried in oven.
Activated QCM chips are dipped in 2.5% glutaldehyde solution for 1 hour, and then MUP solution (20 μg/ml in 10 mM phosphate buffer, pH 7.4) are added and kept for 1 hour. Blocking the activated surface of QCM chips is performed by 100 mM glycine.
A sample is respectively applied in a syringe and kept in an oven at 50° C. An AT-cut QCM device with basic resonant frequency of 10 MHz is employed to determine the adsorption of odorant vapor. The evaporated odorant sample is pumped into the detection chamber of QCM and the shift of resonant frequency is recorded.
A variety of ligands are surveyed according to the above procedures. Table I lists the changes of signal in frequency upon the bindings of different ligands, including phenylacetate, propylbutyrate, hexylbutyrate, benzylbutyrate, propyltiglate, hexyltiglate, and benzyltiglate.

SMILES | Change of Signal (in frequency f)
CCCC(=O)OCc1ccccc1 [benzylbutyrate] | 43
C/C=C(\C)C(=O)OCc1ccccc1 [benzyltiglate] | 43
CCCCCCOC(=O)CCC [hexylbutyrate] | 23
C/C=C(\C)C(=O)OCCCCCC [hexyltiglate] | 55
CCCOC(=O)CCC [propylbutyrate] | 26
C/C=C(\C)C(=O)OCCC [propyltiglate] | 29
